Assay results reported in the NIST ThermoML archive (doi:10.1016/j.fluid.2010.03.010).
± gives the expanded uncertainty stated by the source.

Settings: Liquid, Vibrating tube method

CCCC[n+]1ccn(C)c1.O=S(=O)([N-]S(=O)(=O)C(F)(F)F)C(F)(F)F
Settings | mass density [kg/m3]
345.15 K, 101.33 kPa | 1392.16 ± 11
346.15 K, 101.33 kPa | 1391.23 ± 11
347.15 K, 101.33 kPa | 1390.31 ± 11
348.15 K, 101.33 kPa | 1389.38 ± 11
349.15 K, 101.33 kPa | 1388.46 ± 11
350.15 K, 101.33 kPa | 1387.54 ± 11
351.15 K, 101.33 kPa | 1386.61 ± 11
352.15 K, 101.33 kPa | 1385.69 ± 11
353.15 K, 100 kPa | 1385.8 ± 11
353.15 K, 101.33 kPa | 1384.77 ± 11
353.15 K, 250 kPa | 1385.9 ± 11
353.15 K, 500 kPa | 1386.1 ± 11
353.15 K, 1000 kPa | 1386.5 ± 11
353.15 K, 2000 kPa | 1387.4 ± 11
353.15 K, 5000 kPa | 1390.1 ± 11
353.15 K, 10000 kPa | 1394.3 ± 11
353.15 K, 14990 kPa | 1398.4 ± 11
353.15 K, 20010 kPa | 1402.5 ± 11
353.15 K, 24990 kPa | 1406.3 ± 11
353.15 K, 30010 kPa | 1410.2 ± 11
353.15 K, 34990 kPa | 1413.8 ± 11
353.15 K, 40000 kPa | 1417.5 ± 11
353.15 K, 45000 kPa | 1421 ± 11
353.15 K, 50000 kPa | 1424.6 ± 12
353.15 K, 54990 kPa | 1427.9 ± 12
353.15 K, 60010 kPa | 1431.3 ± 12
354.15 K, 101.33 kPa | 1383.85 ± 11
355.15 K, 101.33 kPa | 1382.93 ± 11
356.15 K, 101.33 kPa | 1382.01 ± 11
357.15 K, 101.33 kPa | 1381.09 ± 11
358.15 K, 101.33 kPa | 1380.17 ± 11
359.15 K, 101.33 kPa | 1379.25 ± 11
360.15 K, 101.33 kPa | 1378.34 ± 11
361.15 K, 101.33 kPa | 1377.42 ± 11
362.15 K, 101.33 kPa | 1376.5 ± 11
363.15 K, 100 kPa | 1376.6 ± 11
363.15 K, 101.33 kPa | 1375.58 ± 11
363.15 K, 250 kPa | 1376.7 ± 11
363.15 K, 500 kPa | 1376.9 ± 11
363.15 K, 1010 kPa | 1377.4 ± 11
363.15 K, 4990 kPa | 1381 ± 11
363.15 K, 10010 kPa | 1385.4 ± 11
363.15 K, 14990 kPa | 1389.6 ± 11
363.15 K, 20010 kPa | 1393.8 ± 11
363.15 K, 25000 kPa | 1397.8 ± 11
363.15 K, 30010 kPa | 1401.7 ± 11
363.15 K, 34990 kPa | 1405.5 ± 11
363.15 K, 40000 kPa | 1409.2 ± 11
363.15 K, 45010 kPa | 1412.8 ± 11
363.15 K, 50000 kPa | 1416.4 ± 11
363.15 K, 54990 kPa | 1419.9 ± 11
363.15 K, 60000 kPa | 1423.4 ± 12
373.15 K, 100 kPa | 1367.3 ± 11
373.15 K, 250 kPa | 1367.4 ± 11
373.15 K, 500 kPa | 1367.7 ± 11
373.15 K, 1010 kPa | 1368.2 ± 11
373.15 K, 2000 kPa | 1369.1 ± 11
373.15 K, 4990 kPa | 1371.9 ± 11
373.15 K, 10000 kPa | 1376.5 ± 11
373.15 K, 14990 kPa | 1380.8 ± 11
373.15 K, 20000 kPa | 1385.1 ± 11
373.15 K, 24990 kPa | 1389.2 ± 11
373.15 K, 30010 kPa | 1393.3 ± 11
373.15 K, 34970 kPa | 1397.1 ± 11
373.15 K, 40000 kPa | 1401 ± 11
373.15 K, 45000 kPa | 1404.7 ± 11
373.15 K, 50000 kPa | 1408.4 ± 11
373.15 K, 54990 kPa | 1411.9 ± 11
373.15 K, 60010 kPa | 1415.5 ± 11
393.15 K, 100 kPa | 1348.8 ± 11
393.15 K, 250 kPa | 1348.9 ± 11
393.15 K, 500 kPa | 1349.2 ± 11
393.15 K, 1000 kPa | 1349.7 ± 11
393.15 K, 2000 kPa | 1350.7 ± 11
393.15 K, 4990 kPa | 1353.7 ± 11
393.15 K, 10000 kPa | 1358.6 ± 11
393.15 K, 15000 kPa | 1363.2 ± 11
393.15 K, 20010 kPa | 1367.8 ± 11
393.15 K, 25000 kPa | 1372.1 ± 11
393.15 K, 30010 kPa | 1376.4 ± 11
393.15 K, 35000 kPa | 1380.5 ± 11
393.15 K, 40000 kPa | 1384.6 ± 11
393.15 K, 45000 kPa | 1388.5 ± 11
393.15 K, 50000 kPa | 1392.4 ± 11
393.15 K, 55020 kPa | 1396.2 ± 11
393.15 K, 60000 kPa | 1399.9 ± 11
413.15 K, 100 kPa | 1330 ± 11
413.15 K, 250 kPa | 1330.2 ± 11
413.15 K, 500 kPa | 1330.5 ± 11
413.15 K, 1000 kPa | 1331 ± 11
413.15 K, 2000 kPa | 1332.1 ± 11
413.15 K, 4990 kPa | 1335.3 ± 11
413.15 K, 10000 kPa | 1340.6 ± 11
413.15 K, 14990 kPa | 1345.6 ± 11
413.15 K, 20010 kPa | 1350.5 ± 11
413.15 K, 25000 kPa | 1355.1 ± 11
413.15 K, 30000 kPa | 1359.7 ± 11
413.15 K, 34990 kPa | 1364 ± 11
413.15 K, 40000 kPa | 1368.4 ± 11
413.15 K, 45000 kPa | 1372.5 ± 11
413.15 K, 50000 kPa | 1376.6 ± 11
413.15 K, 55000 kPa | 1380.6 ± 11
413.15 K, 60000 kPa | 1384.5 ± 11
433.15 K, 100 kPa | 1311 ± 10
433.15 K, 250 kPa | 1311.1 ± 10
433.15 K, 500 kPa | 1311.4 ± 10
433.15 K, 1000 kPa | 1312 ± 10
433.15 K, 2000 kPa | 1313.2 ± 10
433.15 K, 4990 kPa | 1316.7 ± 10
433.15 K, 10000 kPa | 1322.4 ± 11
433.15 K, 15000 kPa | 1327.8 ± 11
433.15 K, 20010 kPa | 1333 ± 11
433.15 K, 25010 kPa | 1338 ± 11
433.15 K, 30010 kPa | 1342.9 ± 11
433.15 K, 34990 kPa | 1347.5 ± 11
433.15 K, 40000 kPa | 1352.1 ± 11
433.15 K, 45000 kPa | 1356.6 ± 11
433.15 K, 50000 kPa | 1360.9 ± 11
433.15 K, 55000 kPa | 1365.1 ± 11
433.15 K, 60000 kPa | 1369.3 ± 11
453.15 K, 100 kPa | 1291.4 ± 10
453.15 K, 250 kPa | 1291.7 ± 10
453.15 K, 500 kPa | 1292 ± 10
453.15 K, 1000 kPa | 1292.6 ± 10
453.15 K, 1950 kPa | 1294 ± 10
453.15 K, 4990 kPa | 1297.7 ± 10
453.15 K, 10000 kPa | 1303.9 ± 10
453.15 K, 15000 kPa | 1309.7 ± 10
453.15 K, 20000 kPa | 1315.3 ± 10
453.15 K, 25000 kPa | 1320.7 ± 11
453.15 K, 30010 kPa | 1325.9 ± 11
453.15 K, 35000 kPa | 1330.9 ± 11
453.15 K, 40000 kPa | 1335.9 ± 11
453.15 K, 45010 kPa | 1340.6 ± 11
453.15 K, 50000 kPa | 1345.3 ± 11
453.15 K, 54990 kPa | 1349.8 ± 11
453.15 K, 60000 kPa | 1354.3 ± 11
473.15 K, 100 kPa | 1271.4 ± 10
473.15 K, 250 kPa | 1271.7 ± 10
473.15 K, 500 kPa | 1272 ± 10
473.15 K, 990 kPa | 1272.7 ± 10
473.15 K, 2000 kPa | 1274.2 ± 10
473.15 K, 4990 kPa | 1278.2 ± 10
473.15 K, 10000 kPa | 1285 ± 10
473.15 K, 15000 kPa | 1291.2 ± 10
473.15 K, 20010 kPa | 1297.4 ± 10
473.15 K, 24990 kPa | 1303.2 ± 10
473.15 K, 30010 kPa | 1308.9 ± 10
473.15 K, 34990 kPa | 1314.2 ± 10
473.15 K, 40010 kPa | 1319.6 ± 11
473.15 K, 45000 kPa | 1324.7 ± 11
473.15 K, 50000 kPa | 1329.7 ± 11
473.15 K, 55000 kPa | 1334.5 ± 11
473.15 K, 60000 kPa | 1339.3 ± 11
